Reference: US20120258980A1, “Antibacterial Agent for Drug-Resistant Bacteria, Method for Screening for Same, and Use of Same” (priority 2009, published 2012)
Converted amounts (≈) assume the structure as drawn. Like-named read-outs stand apart in the source and are kept apart here.

How the values were obtained:
[1] = system: methicillin-susceptible S. aureus (MSSA), MRSA and mutants thereof; assay: MIC measurement, Test Example 3 (MSSA, MRSA and sequential gyrA/grlA quinolone-resistant mutants); format: cell-based, Staphylococcus aureus; details: Staphylococcus aureus
In short: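 Broth microdilution in cation-adjusted Mueller Hinton broth: inoculum from overnight TSB cultures set to A578 0.3, then 500-fold diluted and added 1:1 to serial compound concentrations.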

[2] = system: VISA clinical isolates of MRSA (VI-MRSA) and of MSSA (VI-MSSA); assay: microbe, parasite or virus in culture; format: cell-based, Staphylococcus aureus
In short: (§1)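 Strains were grown overnight at 37° C in TSB, adjusted in CAMHB to 0.3 absorbance at 578 nm and diluted 500-fold before equal-volume addition to compound dilutions.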

[3] = system: VRSA clinical isolates; assay: microbe, parasite or virus in culture; format: cell-based; details: Staphylococcus aureus
In short: as §1

[4] = system: Enterococcus faecalis; assay: MIC measurement, Test Example 6 (enterococcus); format: cell-based; details: Enterococcus faecalis, read-out: MIC
In short: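 Broth microdilution in cation-adjusted Mueller Hinton: inoculum from overnight TSB cultures adjusted to absorbance 0.3 at 578 nm and diluted 500×. Compounds at various concentrations; static 37° C overnight incubation. MIC = lowest concentration without visible turbidity; strains include two vancomycin-resistant NCTC isolates.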

Which results are given for C[C@@H]1CN(c2c(F)c(N)c3c(=O)c(C(=O)O)cn(C4CC4)c3c2F)C[C@H](C)N1 [SPFX, sparfloxacin]?
MIC ([1]; FDA209P / MRSA / MSSA, FDA209P (MSSA), control, read-out: MIC): ≤ 0.063 µg/mL; MIC ([1]; MR5867 (MRSA), clinical isolate parent strain, no mutation): ≤ 0.063 µg/mL; MIC ([1]; MR5867-1, first-step quinolone-resistant mutant, grlA E84K): ≤ 0.063 µg/mL; MIC ([1]; MS5935 (MSSA), clinical isolate parent strain, no mutation, read-out: MIC): ≤ 0.063 µg/mL; MIC ([1]; MS5935-1, first-step quinolone-resistant mutant, grlA S80F): ≤ 0.063 µg/mL; MIC ([1]; MS5935-3, third-step mutant, further grlA E84K): 32 µg/mL (≈ 81.5 µM); MIC ([1]; MS5952 (MSSA), clinical isolate parent strain, no mutation, read-out: MIC): ≤ 0.063 µg/mL; MIC ([2]; Staphylococcus aureus, 99/3700-W, VI-MRSA, The United Kingdom): 16 µg/mL (≈ 40.8 µM); MIC ([2]; Staphylococcus aureus, 99/3759-V, VI-MRSA, The United Kingdom): 16 µg/mL (≈ 40.8 µM); MIC ([2]; Staphylococcus aureus, 28160, VI-MRSA, South African Republic): 32 µg/mL (≈ 81.5 µM); MIC ([2]; Staphylococcus aureus, 98141, VI-MRSA, France): 16 µg/mL (≈ 40.8 µM); MIC ([2]; Staphylococcus aureus, A7 (JCSC4842), VI-MRSA, Taiwan): 8 µg/mL (≈ 20.4 µM); MIC ([2]; Staphylococcus aureus, AMC11094, VI-MRSA, Korea): 32 µg/mL (≈ 81.5 µM); MIC ([2]; Staphylococcus aureus, B7 (JCSC4852), VI-MRSA, Taiwan): 8 µg/mL (≈ 20.4 µM); MIC ([2]; Staphylococcus aureus, BR1, VI-MRSA, Brazil): 32 µg/mL (≈ 81.5 µM); MIC ([2]; Staphylococcus aureus, BR2, VI-MRSA, Brazil): 32 µg/mL (≈ 81.5 µM); MIC ([2]; Staphylococcus aureus, BR3, VI-MRSA, Brazil): 32 µg/mL (≈ 81.5 µM); MIC ([2]; Staphylococcus aureus, BR4, VI-MRSA, Brazil): 16 µg/mL (≈ 40.8 µM); MIC ([2]; Staphylococcus aureus, BR5, VI-MRSA, Brazil): 16 µg/mL (≈ 40.8 µM); MIC ([2]; Staphylococcus aureus, HIP06297, VI-MRSA, America): 8 µg/mL (≈ 20.4 µM); MIC ([2]; Staphylococcus aureus, HIP06854, VI-MRSA, America): 16 µg/mL (≈ 40.8 µM); MIC ([2]; Staphylococcus aureus, HIP07920, VI-MRSA, America): 16 µg/mL (≈ 40.8 µM); MIC ([2]; Staphylococcus aureus, HIP07930, VI-MRSA, America): 16 µg/mL (≈ 40.8 µM); MIC ([2]; Staphylococcus aureus, HIP08926, VI-MRSA, America): 16 µg/mL (≈ 40.8 µM); MIC ([2]; Staphylococcus aureus, HIP09143, VI-MRSA, America): 16 µg/mL (≈ 40.8 µM); MIC ([2]; Staphylococcus aureus, HIP09313, VI-MRSA, America): 8 µg/mL (≈ 20.4 µM); MIC ([2]; Staphylococcus aureus, HIP09433, VI-MRSA, America): 64 µg/mL (≈ 163 µM); MIC ([2]; Staphylococcus aureus, HIP09662, VI-MRSA, America): 16 µg/mL (≈ 40.8 µM); MIC ([2]; Staphylococcus aureus, HIP09735, VI-MRSA, America): 16 µg/mL (≈ 40.8 µM); MIC ([2]; Staphylococcus aureus, HIP09737, VI-MSSA, America): 16 µg/mL (≈ 40.8 µM); MIC ([2]; Staphylococcus aureus, HIP09740, VI-MRSA, America): 16 µg/mL (≈ 40.8 µM); MIC ([2]; Staphylococcus aureus, HIP10267, VI-MRSA, America): 16 µg/mL (≈ 40.8 µM); MIC ([2]; Staphylococcus aureus, HIP10540, VI-MRSA, America): 16 µg/mL (≈ 40.8 µM); MIC ([2]; Staphylococcus aureus, HIP12864, VI-MRSA, America): 32 µg/mL (≈ 81.5 µM); MIC ([2]; Staphylococcus aureus, HIP13036, VI-MRSA, America): 4 µg/mL (≈ 10.2 µM); MIC ([2]; Staphylococcus aureus, HIP13057, VI-MRSA, America): 8 µg/mL (≈ 20.4 µM); MIC ([2]; Staphylococcus aureus, IL (HIP7737), VI-MRSA, America): 32 µg/mL (≈ 81.5 µM); MIC ([2]; Staphylococcus aureus, JCSC7193, VI-MRSA, Thailand): 16 µg/mL (≈ 40.8 µM); MIC ([2]; Staphylococcus aureus, JCSC7195, VI-MRSA, Thailand): 32 µg/mL (≈ 81.5 µM); MIC ([2]; Staphylococcus aureus, JCSC7203, VI-MRSA, Thailand): 16 µg/mL (≈ 40.8 µM); MIC ([2]; Staphylococcus aureus, LIM2, VI-MRSA, France): 16 µg/mL (≈ 40.8 µM); MIC ([2]; Staphylococcus aureus, LY-1999-01, VI-MSSA, Oman): 2 µg/mL (≈ 5.1 µM); MIC ([2]; Staphylococcus aureus, LY-1999-03, VI-MRSA, Oman): 8 µg/mL (≈ 20.4 µM); MIC ([2]; Staphylococcus aureus, MI (HIP5827), VI-MRSA, America): 32 µg/mL (≈ 81.5 µM); MIC ([2]; Staphylococcus aureus, MRSA / MSSA / NRS 76 / VISA, NRS76, VI-MSSA, America): 32 µg/mL (≈ 81.5 µM); MIC ([2]; Staphylococcus aureus, MRSA / MSSA / NRS 79 / VISA, NRS79, VI-MRSA, America): 16 µg/mL (≈ 40.8 µM); MIC ([2]; Staphylococcus aureus, MRSA / MSSA / NRS 118 / VISA, NRS118, VI-MRSA, America): 32 µg/mL (≈ 81.5 µM); MIC ([2]; Staphylococcus aureus, MRSA / MSSA / NRS 126 / VISA, NRS126, VI-MRSA, America): 8 µg/mL (≈ 20.4 µM); MIC ([2]; Staphylococcus aureus, Mu3, VI-MRSA, Japan): 16 µg/mL (≈ 40.8 µM); MIC ([2]; Staphylococcus aureus, Mu50, VI-MRSA, Japan): 16 µg/mL (≈ 40.8 µM); MIC ([2]; Staphylococcus aureus, NJ (HIP5836), VI-MRSA, America): 32 µg/mL (≈ 81.5 µM); MIC ([2]; Staphylococcus aureus, P1V44, VI-MSSA, Belgium): 4 µg/mL (≈ 10.2 µM); MIC ([2]; Staphylococcus aureus, PC, VI-MRSA, America): 16 µg/mL (≈ 40.8 µM); MIC ([2]; Staphylococcus aureus, SA MER-S6, VI-MSSA, France): 0.25 µg/mL (≈ 0.637 µM); MIC ([2]; Staphylococcus aureus, SA MER-S12, VI-MSSA, France): 0.25 µg/mL (≈ 0.637 µM); MIC ([2]; Staphylococcus aureus, SA MER-S20, VI-MSSA, France): 0.125 µg/mL (≈ 0.319 µM); MIC ([3]; VRS1, VRSA, Michigan): 8 µg/mL (≈ 20.4 µM); MIC ([3]; VRS2, VRSA, Pennsylvania): 8 µg/mL (≈ 20.4 µM); MIC ([3]; VRS3, VRSA, New York): 16 µg/mL (≈ 40.8 µM); MIC ([3]; VRS4, VRSA, New York): 16 µg/mL (≈ 40.8 µM); MIC ([3]; VRS5, VRSA, Michigan): 128 µg/mL (≈ 326 µM); MIC ([3]; VRS6, VRSA, Michigan): 16 µg/mL (≈ 40.8 µM); MIC ([3]; VRS7, VRSA, Michigan): 16 µg/mL (≈ 40.8 µM); MIC ([4]; E. faecalis 36-15672, quinolone-susceptible enterococci): 1 µg/mL (≈ 2.55 µM); MIC ([4]; E. faecalis 36-15673, quinolone-susceptible enterococci): 1 µg/mL (≈ 2.55 µM); MIC ([4]; E. faecalis 36-15678, quinolone-susceptible enterococci): 0.5 µg/mL (≈ 1.27 µM); MIC ([4]; E. faecalis 36-15686, quinolone-resistant enterococci): 128 µg/mL (≈ 326 µM); MIC ([4]; E. faecalis 36-15688, quinolone-susceptible enterococci): 0.5 µg/mL (≈ 1.27 µM); MIC ([4]; E. faecalis 36-15694, quinolone-resistant enterococci): 64 µg/mL (≈ 163 µM); MIC ([4]; E. faecalis 36-15696, quinolone-susceptible enterococci): 0.5 µg/mL (≈ 1.27 µM); MIC ([4]; E. faecalis 36-15703, quinolone-resistant enterococci): 32 µg/mL (≈ 81.5 µM); MIC ([4]; E. faecalis 36-15716, quinolone-resistant enterococci): 64 µg/mL (≈ 163 µM); MIC ([4]; E. faecalis 36-15718, quinolone-susceptible enterococci): 0.5 µg/mL (≈ 1.27 µM); MIC ([4]; E. faecalis 36-15720, quinolone-susceptible enterococci): 1 µg/mL (≈ 2.55 µM); MIC ([4]; E. faecalis 36-15722, quinolone-resistant enterococci): 64 µg/mL (≈ 163 µM); MIC ([4]; E. faecalis 36-15726, quinolone-resistant enterococci): 64 µg/mL (≈ 163 µM); MIC ([4]; E. faecalis 36-15730, quinolone-susceptible enterococci): 1 µg/mL (≈ 2.55 µM); MIC ([4]; E. faecalis 36-15736, quinolone-susceptible enterococci): 0.5 µg/mL (≈ 1.27 µM); MIC ([4]; E. faecalis 36-15741, quinolone-susceptible enterococci): 1 µg/mL (≈ 2.55 µM); MIC ([4]; NCTC 12201 / VRE, E. faecalis NCTC12201, vancomycin-resistant (VRE), quinolone-susceptible enterococci): 0.5 µg/mL (≈ 1.27 µM); MIC ([4]; NCTC 12203 / VRE, E. faecalis NCTC12203, vancomycin-resistant (VRE), quinolone-susceptible enterococci): 0.5 µg/mL (≈ 1.27 µM)
